Experiments:
Type in all cases: in vivo
anterior tibialis = experiment: Neuromuscular blocking potency in anaesthetized cats (peroneal nerve stimulation, anterior tibialis twitch tension); conditions: intravenous (femoral vein), calculated from dose-response curves, mg/kg as the free base, based on the weight of the atracurium cation
Experimental: (§1) Mongrel male cats (Southeastern Laboratories Animal Farm), weighing 2.2-4.25kg, were anaesthetized with a mixture of pentobarbital sodium, 7mg/kg i.p., and alpha-chloralose, 80 mg/kg i.p. Adequate levels of anaesthesia were maintained with supplemental doses of alpha-chloralose administered intravenously as needed. The trachea was cannulated and the animals were ventilated with 20 ml/kg of room air via a Harvard Apparatus respiration pump adjusted to deliver 20 strokes/minute. Arterial blood pressure was measured via a cannula in the right femoral artery connected to a Statham P23 transducer. Heart rate was determined from the ECG using a Grass tachograph. […] Isometric […] of the nictitating membrane were recorded during a resting tension of 5 grams with a Grass FT.03 force displacement transducer and a Grass polygraph. […] Twitch tension in the anterior tibialis was recorded during a resting tension of 50 grams. […] Esophageal temperature was monitored with a Yellow Springs thermistor probe and core temperature maintained between 37° and 38°C with radiant heat. […] At the end of the experiments, cats were euthanatized with intravenously administered saturated KCl or pentobarbital sodium. b) Results The ED₉₅ value for neuromuscular blocking potency was calculated from dose-response curves. […]

vagus = experiment: Parasympathetic blockade in anaesthetized cats (inhibition of the response to vagus stimulation); conditions: i.v., ED₅₀ for inhibition of parasympathetic (vagus) nerve stimulation relative to neuromuscular ED₉₅
Experimental: as §1

[1] = test system: cervical sympathetic nerve; experiment: Sympathetic blockade in anaesthetized cats (cervical sympathetic nerve stimulation, nictitating membrane contraction); conditions: i.v., ED₂₅ for inhibition of sympathetic nerve stimulation relative to neuromuscular ED₉₅
Experimental: as §1

SMILES	CALC. * ED₉₅ (anterior tibialis) [mg/kg]	RATIO 50% VAGUS INHIBITION vs. ED₉₅ (vagus)	RATIO 25% SYMPATHETIC INHIBITION vs. ED₉₅ [1]
COc1ccc(C[C@@H]2c3cc(OC)c(OC)cc3CC[N+]2(C)CCC(=O)OCCCCCOC(=O)CC[N+]2(C)CCc3cc(OC)c(OC)cc3[C@H]2Cc2ccc(OC)c(OC)c2)cc1OC.CS(=O)(=O)[O-].CS(=O)(=O)[O-] (relative stereo) [Compound A, 1R-cis,1'R-cis-2,2'-(3,11-Dioxo-4,10-dioxatridecamethylene)-bis-(1,2,3,4-tetrahydro-6,7-dimethoxy-2-methyl-1-veratrylisoquinolinium)methanesulphonate]	0.062 ± 0.008	27	60
COc1ccc(CC2c3cc(OC)c(OC)cc3CC[N+]2(C)CCC(=O)OCCCCCOC(=O)CC[N+]2(C)CCc3cc(OC)c(OC)cc3C2Cc2ccc(OC)c(OC)c2)cc1OC (stereo not drawn) [Atracurium besylate, 2,2'-(3,11-dioxo-4,10-dioxatridecylene)-bis-(1,2,3,4-tetrahydro-6,7-dimethoxy-2-methyl-1-veratrylisoquinolinium dibesylate]	0.092 ± 0.010	17	34

From patent publication EP0539470B1, “NEUROMUSCULAR BLOCKING AGENTS” (THE WELLCOME FOUNDATION LIMITED, priority 1990, dated 1992)
